How the values were obtained:
[1] = test system: patients with symptomatic oHCM; assay: SEQUOIA-HCM substudy: post-exercise oxygen uptake recovery (VO2Rec); type: in vivo, human
Description: Patients were randomized 1:1 to aficamten or placebo for 24 weeks with a primary endpoint of pVO2. For this analysis, VO2Rec delay was measured as the time taken after exercise cessation for VO2 to decline by >0%, 12.5% (t12.5%), 25%, or 50% of pVO2. Change in t12.5% from baseline (BL) to week 24 (W24) was the primary endpoint. […]

[2] = test system: patients with symptomatic oHCM; assay: SEQUOIA-HCM cardiovascular magnetic resonance (CMR) substudy; type: in vivo, human
Description: A further exploratory objective of this trial was to evaluate the effect of aficamten on left ventricular mass, function, and structure by cardiac magnetic resonance (CMR) imaging, as determined by changes from baseline to Week 24 in CMR measurements of left ventricular (LV) mass index, LVEF, septal and free wall thickness, left […] volume index, LVESV, and LVEDV. Cardiac Magnetic Resonance. A CMR imaging sub-study assessed the effects of administration of aficamten dosing on cardiac morphology, function, and fibrosis in approximately 40 oHCM patients who were eligible and consented to participate. CMR was performed during screening period and Week 24. […] Effect of Aficamten on Cardiac Structure and Function in Patients with Obstructive Hypertrophic Cardiomyopathy. For some patients with HCM, adverse remodeling of cardiac structure and function occur over time and are associated with increased risk of adverse events, including heart failure, sudden death and atrial fibrillation. Eligible participants enrolled in SEQUOIA-HCM (the study of Example 8), were offered enrolment in the cardiovascular magnetic resonance (CMR) substudy with CMR performed at baseline and at Week 24. Image analysis was performed in a blinded fashion by a core laboratory.

[3] = LSM treatment difference vs placebo
[4] = change from baseline to week 24
[5] = CMR Cohort N = 57 (Aficamten N = 25), Baseline
[6] = CMR Cohort N = 57 (Aficamten N = 25), Week 24
[7] = CMR Measurements, CMR Cohort N = 57 (Aficamten N = 25), Baseline
[8] = CMR Measurements, CMR Cohort N = 57 (Aficamten N = 25), Week 24
[9] = CMR Measurements, CMR Cohort N = 57, vs placebo
[10] = Echo Measurements, CMR Cohort N = 57 (Aficamten N = 25), Baseline
[11] = Echo Measurements, CMR Cohort N = 57 (Aficamten N = 25), Week 24
[12] = Echo Measurements, CMR Cohort N = 57, vs placebo
[13] = baseline to week 24, vs placebo

## CCc1nc(-c2ccc3c(c2)CC[C@H]3NC(=O)c2cnn(C)c2)no1 [aficamten, (R)—N-(5-(5-ethyl-1,2,4-oxadiazol-3-yl)-2,3-dihydro-1H-inden-1-yl)-1-methyl-1H-pyrazole-4-carboxamide]
[1]; Baseline
  Peak VO2: 18.4 mL/min/kg
  VO2 recovery 12.5%: 45 s
  VO2 recovery 25%: 66 s
  VO2 recovery 50%: 115 s
  VO2 recovery delay: 19 s
[1]; [3]
  Peak VO2, Adjusted Δ: 1.7 mL/min/kg
  VO2 recovery 12.5%, Adjusted Δ: -8 s
  VO2 recovery 25%, Adjusted Δ: -7 s
  VO2 recovery 50%, Adjusted Δ: -8 s
  VO2 recovery delay, Adjusted Δ: -4 s
[1]; Week 24
  Peak VO2: 20.2 mL/min/kg
  VO2 recovery 12.5%: 38 s
  VO2 recovery 25%: 60 s
  VO2 recovery 50%: 107 s
  VO2 recovery delay: 15 s
[1]; aficamten group, W24
  improvement in pVO2: 9%
  improvement in t12.5% (VO2Rec delay): 18%
[1]; aficamten vs placebo
  improving t12.5% by ≥15 seconds, NNT: 4.8
  improving t12.5% by ≥15 seconds, OR: 3.68
[1]; [4]
  Peak VO2, Absolute Δ: 1.8 mL/min/kg
  VO2 recovery 12.5%, Absolute Δ: -7 s
  VO2 recovery 25%, Absolute Δ: -6 s
  VO2 recovery 50%, Absolute Δ: -8 s
  VO2 recovery delay, Absolute Δ: -4 s
[2]; Baseline, N = 21
  LGE (% of LV mass) (CMR): 2.0 % of LV mass
  LGE Mass (CMR): 3.2 g
  Mitral Regurgitation Fraction (CMR): 24%
  Mitral Regurgitation Volume (CMR): 22 mL
  NT-proBNP, median: 708 pg/mL
  NYHA Class II, patients: 67%
  NYHA Class III, patients: 33%
[2]; Baseline, N = 21, mean ± SD
  Absolute myocyte mass index (CMR): 84 ± 25 g/m^2
  Echo LVOT Gradient at Rest: 55 ± 32 mm Hg
  Echo LVOT Gradient with Valsalva: 85 ± 45 mm Hg
  LA Volume Index (CMR): 68 ± 19 mL/m^2
  LV Ejection Fraction (CMR): 77.4 ± 5.6%
  LV End Diastolic Volume Index (CMR): 67 ± 15 mL/m^2
  LV End Systolic Volume Index (CMR): 15.3 ± 5.9 mL/m^2
  LV Extracellular Volume Fraction (CMR): 26.7 ± 2.7%
  LV Mass Index (CMR): 113 ± 33 g/m^2
  LV Maximal Wall Thickness (CMR): 19.3 ± 4.3 mm
  LV Native T1 (CMR): 1066 ± 121 ms
  LV extracellular volume mass index (CMR): 31 ± 10 %/g/m^2
  Peak oxygen consumption, pVO2: 20.1 ± 4.4 mL/kg/min
[2]; [5]
  NT-proBNP, median: 708 pg/mL
  Peak oxygen consumption, pVO2: 19.8 ± 4.7 mL/kg/min
[2]; [6]
  Improvement in NYHA by ≥1 FC, n (%): 15 (60.0) n (%)
  NT-proBNP, median: 81 pg/mL
  Peak oxygen consumption, pVO2: 21.0 ± 4.9 mL/kg/min
[2]; CMR Cohort N = 57, Week 24, vs placebo
  Improvement in NYHA by ≥1 FC, Treatment Effect, OR: OR 3.00
[2]; CMR Cohort N = 57, vs placebo
  NT-proBNP, Treatment Effect: -85 pg/mL
  Peak oxygen consumption, pVO2, Treatment Effect: 1.2 mL/kg/min
[2]; [7]
  LA Volume Index: 68 ± 19 mL/m^2
  LV Ejection Fraction: 77.4 ± 5.6%
  LV Mass Index: 113 ± 33 g/m^2
  LV Maximal Wall Thickness: 19.3 ± 4.3 mm
[2]; [8]
  LA Volume Index: 52 ± 14 mL/m^2
  LV Ejection Fraction: 73.8 ± 5.9%
  LV Mass Index: 103 ± 28 g/m^2
  LV Maximal Wall Thickness: 17.8 ± 4.5 mm
[2]; [9]
  LA Volume Index, Treatment Effect: −13 mL/m^2
  LV Ejection Fraction, Treatment Effect: −2.6%
  LV Mass Index, Treatment Effect: −15 g/m^2
  LV Maximal Wall Thickness, Treatment Effect: −2.1 mm
[2]; CMR substudy patients, Week 24
  NT-proBNP, change relative to placebo: −85%
  echocardiographic Valsalva LVOT-G, Δ least squares mean relative to placebo: −50 mm Hg
  echocardiographic resting LVOT-G, Δ least squares mean relative to placebo: −46 mm Hg
[2]; [10]
  LA Volume Index: 40 ± 11 mL/m^2
  LV Ejection Fraction: 74.3 ± 4.7%
  LV Mass Index: 126 ± 22 g/m2
  LV Maximal Wall Thickness: 20.6 ± 2.7 mm
  LVOT gradient at rest: 55 ± 30 mmHg
  LVOT gradient with Valsalva: 84 ± 42 mmHg
[2]; [11]
  LA Volume Index: 39 ± 10 mL/m^2
  LV Ejection Fraction: 68.2 ± 7.8%
  LV Maximal Wall Thickness: 18.7 ± 3.1 mm
  LVOT gradient at rest: 25 ± 25 mmHg
  LVOT gradient with Valsalva: 38 ± 30 mmHg
[2]; [12]
  LA Volume Index, Treatment Effect: −1 mL/m^2
  LV Ejection Fraction, Treatment Effect: −3.6%
  LV Mass Index, Treatment Effect: −10 g/m2
  LV Maximal Wall Thickness, Treatment Effect: −1.5 mm
  LVOT gradient at rest, Treatment Effect: −38 mmHg
  LVOT gradient with Valsalva, Treatment Effect: −47 mmHg
[2]; Week 24
  CMR LV end-diastolic and end-systolic volumes: no significant change
  CMR LV mass index, Δ least squares mean relative to placebo: −15 g/m^2
  CMR left atrial volume index, Δ least squares mean relative to placebo: −13 mL/m^2
  CMR maximal LV wall thickness, Δ least squares mean relative to placebo: −2.1 mm
  CMR native Tl relaxation time, Δ least squares mean relative to placebo: -37 ms
  LV extracellular volume fraction [ECV]: 0.7%
  LV replacement fibrosis, late gadolinium enhancement [LGE] mass: -0.7 g
[2]; Week 24, N = 21
  LGE (% of LV mass) (CMR): 1.4 % of LV mass
  LGE Mass (CMR): 1.5 g
  Mitral Regurgitation Fraction (CMR): 13%
  Mitral Regurgitation Volume (CMR): 12 mL
  NT-proBNP, median: 79 pg/mL
  NYHA Class I, patients: 57%
  NYHA Class II, patients: 29%
  NYHA Class III, patients: 14%
[2]; Week 24, N = 21, mean ± SD
  Absolute myocyte mass index (CMR): 75 ± 22 g/m^2
  Echo LVOT Gradient at Rest: 21 ± 18 mm Hg
  Echo LVOT Gradient with Valsalva: 35 ± 26 mm Hg
  LA Volume Index (CMR): 52 ± 14 mL/m^2
  LV Ejection Fraction (CMR): 73.8 ± 5.9%
  LV End Diastolic Volume Index (CMR): 60 ± 11 mL/m^2
  LV End Systolic Volume Index (CMR): 16.0 ± 5.1 mL/m^2
  LV Extracellular Volume Fraction (CMR): 27.4 ± 7.1%
  LV Mass Index (CMR): 103 ± 28 g/m^2
  LV Maximal Wall Thickness (CMR): 17.8 ± 4.5 mm
  LV Native T1 (CMR): 1021 ± 93 ms
  LV extracellular volume mass index (CMR): 29 ± 12 %/g/m^2
  Peak oxygen consumption, pVO2: 21.1 ± 4.7 mL/kg/min
[2]; [13]
  Absolute myocyte mass index (CMR), Treatment Effect (95% CI): −14 (−23, −4) g/m^2
  Echo LVOT Gradient at Rest, Treatment Effect: −46 mm Hg
  Echo LVOT Gradient with Valsalva, Treatment Effect: −50 mm Hg
  LA Volume Index (CMR), Treatment Effect: −13 mL/m^2
  LGE (% of LV mass) (CMR), Treatment Effect (95% CI): −0.4 (−2.1, 1.2) % of LV mass
  LGE Mass (CMR), Treatment Effect (95% CI): −0.7 (−2.9, 1.6) g
  LV Ejection Fraction (CMR), Treatment Effect: −2.6%
  LV End Diastolic Volume Index (CMR), Treatment Effect: −1 mL/m^2
  LV End Systolic Volume Index (CMR), Treatment Effect: 1.4 mL/m^2
  LV Extracellular Volume Fraction (CMR), Treatment Effect (95% CI): 0.7 (−2.2, 3.6) %
  LV Mass Index (CMR), Treatment Effect: −15 g/m^2
  LV Maximal Wall Thickness (CMR), Treatment Effect: −2.1 mm
  LV Native T1 (CMR), Treatment Effect (95% CI): −37 (−69, −5) ms
  LV extracellular volume mass index (CMR), Treatment Effect: −3.9 %/g/m^2
  Mitral Regurgitation Fraction (CMR), Treatment Effect: −6%
  Mitral Regurgitation Volume (CMR), Treatment Effect: -7 mL
  NT-proBNP, Treatment Effect: −85%
  Peak oxygen consumption, pVO2, Treatment Effect: 1.0 mL/kg/min
  Treatment Effect ≥1 NYHA Class Improvement: 36%

Reference: patent US20250295639A1, “METHODS FOR TREATING HEART DISEASES” (Cytokinetics, Incorporated, priority 2024, published 2025)
